≈ marks a conversion by molar mass, not a printed value.

The test system of data set [1] is Mycobacterium tuberculosis. The data set can be described thus: Antitubercular activity against Mycobacterium tuberculosis H37Rv assessed as bacterial growth inhibition measured after […] by twofold agar dilution method. The class given is functional.
Data set [2] deals with Mycobacterium tuberculosis. Put plainly: Antitubercular activity against Mycobacterium tuberculosis H37Rv assessed as bacterial growth inhibition by direct susceptibility assay. The format is functional.
The nature of data set [3]: Cytotoxicity against CHO cells assessed as cell growth inhibition by MTT assay. To be noted: chinese hamster. The class given is toxicity, cell-based, Cricetulus griseus.
The test system of data set [4] is Mycobacterium tuberculosis. The data set can be described thus: Potency index, ratio of ethambutol MIC to test compound MIC for antitubercular activity against Mycobacterium tuberculosis H37Rv assessed as bacterial growth inhibition. The class given is functional.
Data set [5] has as its system Mycobacterium tuberculosis. The data set can be described thus: Antitubercular activity against Mycobacterium tuberculosis H37Rv assessed as bacterial growth inhibition measured after 7 days by MABA method. The class given is functional. The following applies: 168 h, time 7 day.
In data set [6] the test system is Mycobacterium tuberculosis. Put plainly: Antitubercular activity against Mycobacterium tuberculosis H37Rv ATCC 27294 assessed as bacterial growth inhibition measured after 9 days by twofold agar dilution method. The format is functional. To be noted: H37Rv ATCC 27294, 216 h, time 9 day.
Data set [7] deals with Mycobacterium tuberculosis. The data set can be described thus: Antitubercular activity against Mycobacterium tuberculosis H37Rv assessed as reduction in relative light units at 2 ug/ml incubated for 4 hrs followed by addition of D-luciferin by luciferase based luminometer analysis relative to control. The format is functional. Also on record: scale not given: the % may be the effect or the level left. The following applies: dose 2 µg/ml.

Data set [8] concerns Mycobacterium tuberculosis. Put plainly: Antitubercular activity against Mycobacterium tuberculosis H37Rv assessed as bacterial growth inhibition measured after 7 days by direct susceptibility assay. To be noted: 168 h, time 7 day. The class given is functional.
In data set [9] the test system is Mycobacterium tuberculosis. Put plainly: Antitubercular activity against active stage of Mycobacterium tuberculosis H37Ra ATCC 25177 assessed as bacterial growth inhibition by XTT assay. The class given is functional.
Data set [10] concerns Mycobacterium tuberculosis. Put plainly: Antitubercular activity against Mycobacterium tuberculosis mc 2 7000 assessed as bacterial growth inhibition. The format is functional.
The subject of data set [11] is Mycobacterium tuberculosis. The data set can be described thus: Antitubercular activity against dormant stage of Mycobacterium tuberculosis H37Ra ATCC 25177 assessed as bacterial growth inhibition by XTT assay. The format is functional.

Consider `O=C1CC2CN(c3ccc(N4C[C@H](Cn5ccnn5)OC4=O)cc3F)CC2C1` (some centres not stated), for which the MIC in [1] came to 0.5 µg/mL (≈ 1.3 µM).
With `COc1c(N2CCN(C(=O)Cn3cc(CN4C(=O)C(=O)c5cc(C)ccc54)nn3)C(C)C2)c(F)cc2c(=O)c(C(=O)O)cn(C3CC3)c12` (configuration not stated), in [2], the MIC was found to be 1 µg/mL (≈ 1.52 µM). Also, the CC50 in data set [3] was 64 µg/mL (≈ 97.3 µM).
As to `O=C(N/N=C1\C(=O)N(Cc2ccc(Cl)cc2)c2ccccc21)c1ccc(-n2cc(-c3ccccc3)nn2)cc1O`, in data set [4], the Ratio is 8. Besides, in data set [5], the MIC stood at 0.39 µg/mL (≈ 0.71 µM).
Consider `O=C(OCc1cn(CCCc2ccccc2)nn1)c1ccc(F)cc1`, for which the minimal inhibitory concentration (MIC) in data set [6] amounted to 3.75 µg/mL (≈ 11 µM).
For the compound `CO[C@H]1/C=C/O[C@@]2(C)Oc3c(C)c(O)c4c(O)c(c(/C=N/N5CCN(C)CC5)c(O)c4c3C2=O)NC(=O)/C(C)=C\C=C\[C@H](C)[C@H](O)[C@@H](C)[C@@H](O)[C@@H](C)[C@H](OC(C)=O)[C@@H]1C` [RIFAMPIN], in [7], the Activity was 87%. In addition, the minimum inhibitory concentration (MIC) came to 0.043 µg/mL (≈ 0.0523 µM) in [8]; 0.074 µg/mL (≈ 0.0899 µM) in data set [9]; 0.2 µg/mL (≈ 0.243 µM) in data set [5]; 0.12 µM (≈ 0.0988 µg/mL) in data set [10]; 0.075 µg/mL (≈ 0.0911 µM) in data set [11].
